From patent US6479531B1, “Gastrin and cholecystokinin receptor ligands” (James Black Foundation Limited, priority 1998, dated 2002)

Target: T1, gastrin receptor (Rattus norvegicus, UniProt P30553)
T1 construct: The stomach was excised and flushed with ca. 1 ml of unbuffered physiological saline solution; from tissue; host or cells: isolated whole stomach of immature rats (ca. 21 days old)
T1 sequence (P30553 1-452): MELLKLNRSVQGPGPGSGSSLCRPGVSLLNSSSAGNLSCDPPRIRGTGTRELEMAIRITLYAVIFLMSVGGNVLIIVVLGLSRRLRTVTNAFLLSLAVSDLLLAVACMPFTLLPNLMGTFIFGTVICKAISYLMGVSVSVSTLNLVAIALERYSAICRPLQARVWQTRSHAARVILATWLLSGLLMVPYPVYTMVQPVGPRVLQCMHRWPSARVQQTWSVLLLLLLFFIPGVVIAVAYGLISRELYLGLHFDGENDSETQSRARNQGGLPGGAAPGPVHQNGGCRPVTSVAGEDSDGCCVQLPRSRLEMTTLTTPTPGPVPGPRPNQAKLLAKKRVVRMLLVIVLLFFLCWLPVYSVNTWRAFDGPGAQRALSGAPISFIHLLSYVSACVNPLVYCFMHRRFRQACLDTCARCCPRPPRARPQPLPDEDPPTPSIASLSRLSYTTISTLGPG
Assay: gastrin antagonist activity in immature rat stomach assay (pentagastrin dose-response, acid secretion)
Conditions: isolated immature rat stomach, cumulative pentagastrin dose-response curves; for Kb: read-out: Gastrin pKb (converted)
Method: The compounds of the examples were also tested for gastrin antagonist activity in an immature rat stomach assay. The procedure was as follows:
The oesophagus of immature rats (33-50 g, ca. 21 days old) was ligated at the level of the cardiac sphincter and the duodenal sphincter was cannulated. The stomach was excised and flushed with ca. 1 ml of unbuffered physiological saline solution. The fundus was punctured and cannulated. A further 4-5 ml of unbuffered solution was flushed through the stomach to ensure the preparation was not leaking. The stomach was lowered into a jacketed organ bath containing 40 ml of buffered solution containing 3×10^−8 M 5-methylfurmethide, maintained at 37° and gassed vigorously with 95% O2/5% CO2. The stomach was continuously perfused at a rate of 1 ml min^−1 with unbuffered solution gassed with 100% O2 with the perfusate passing over an internally referenced pH-electrode fixed 12 cm above the stomach.
After 120 min of stabilisation the drugs were added directly to the serosal solution in the organ bath and after a further 60 min cumulative pentagastrin dose-response curves were started. Changes in acid secretion were monitored and the curves analysed according to Black et al., Br. J. Pharmacol., 1985, 86, 581.

Molecule Cc1cc(C)c(-c2nc(C(=O)Nc3cccc(C(=O)O)c3)c(COC34CC5CC(CC(C5)C3)C4)[nH]2)c(C)c1 [Example 226, 3-{[5-(Adamantan-1-yloxymethyl)-2-(2,4,6-trimethyl-phenyl)-1H-imidazole-4-carbonyl]-amino}-benzoic Acid] has a Kb of 13.5 nM.

For “5-{[5-(2-Adamantan-1-yl-ethyl)-2-[1-(2-methyl-propyl)-piperidin-2-yl])-1H-imidazole-4-carbonyl]-amino}-2-methyl-benzoic Acid [Example 142]”, the “Gastrin pKb” value was 6.75.

COc1cc(OC)c(-c2nc(C(=O)Nc3cccc(C(=O)O)c3)c(CCC34CC5CC(CC(C5)C3)C4)[nH]2)c(OC)c1 [Example 160, 3-{[5-(2-Adamantan-1-yl-ethyl)-2-(2,4,6-trimethoxy-phenyl)-1H-imidazole-4-carbonyl]-amino}-benzoic Acid] showed a Kb of 912 nM.

In the case of Cc1ccccc1-c1nc(CCC23CC4CC(CC(C4)C2)C3)c(CCc2cccc(C(=O)O)c2)n1C [Example 277, 3-{2-[5-(2-Adamantan-1-yl-ethyl)-3-methyl-2-o-tolyl-3H-imidazol-4-yl]-ethyl}-benzoic Acid], the Kb is reported as 1000 nM.

Cc1ccccc1-c1nc(C(=O)Nc2cccc(C(=O)O)c2)c(COC23CC4CC(CC(C4)C2)C3)[nH]1 [Example 304, 3-{[5-(Adamantan-1-yloxymethyl)-2-o-tolyl-1H-imidazole-4-carbonyl]-amino}-benzoic Acid] gave a Kb of 24 nM.

For Cc1ccccc1-c1nc(C(=O)Oc2cccc(C(=O)O)c2)c(CCC23CC4CC(CC(C4)C2)C3)[nH]1 [Example 281, 5-(2-Adamantan-1-yl-ethyl)-2-o-tolyl-1H-imidazole-4-carboxylic Acid 3-carboxy-phenyl Ester], the Kb was 2090 nM.

“(±)-3-{[5-(2-Adamantan-1-yl-ethyl)-2-[1-(2-methyl-propyl)-piperidin-2-yl])-1H-imidazole-4-carbonyl]-amino}-benzoic Acid [Example 140]” was tested, and the “Gastrin pKb” value was 7.54.

Cn1c(C2CCCCC2)nc(C(=O)Nc2cccc(CC(=O)O)c2)c1CCC12CC3CC(CC(C3)C1)C2 [Example 215, (3-{[5-(2-Adamantan-1-yl-ethyl)-2-cyclohexyl-1-methyl-1H-imidazole-4-carbonyl]-amino}-phenyl)-acetic Acid] was tested, and the Kb was 363 nM.

CC1(C)C2CC[C@@]1(C)C(c1nc(C(=O)Nc3cccc(C(=O)O)c3)c(CCC34CC5CC(CC(C5)C3)C4)[nH]1)C2 (mixture of isomers) [Example 206, 3-{[5-(2-Adamantan-1-yl-ethyl)-2-[(1S,2RS)-1,7,7-trimethyl-bicyclo[2.2.1]hept-2-yl]-1H-imidazole-4-carbonyl]-amino}-benzoic Acid] showed a Kb of 263 nM.

In the case of O=C(O)c1cc(NC(=O)c2nc(C34CCC(CC3)CC4)[nH]c2CCC23CC4CC(CC(C4)C2)C3)ccc1F [Example 213, 5-{[5-(2-Adamantan-1-yl-ethyl)-2-bicyclo[2.2.2]oct-1-yl-1H-imidazole-4-carbonyl]-amino}-2-fluoro-benzoic Acid], the Kb is reported as 75.9 nM.

Cc1cc(C)c(-c2nc(COC34CC5CC(CC(C5)C3)C4)c(C(=O)Nc3cccc(C(=O)O)c3)n2O)c(C)c1 [Example 312, 3-{[5-(Adamantan-1-yloxymethyl)-2-(2,4,6-trimethyl-phenyl)-3-hydroxy-3H-imidazole-4-carbonyl]-amino}-benzoic Acid] showed a Kb of 34.7 nM.

For COCC(COC)c1nc(C(=O)Nc2cccc(C(=O)O)c2)c(CCC23CC4CC(CC(C4)C2)C3)[nH]1 [Example 189, 3-{[5-(2-Adamantan-1-yl-ethyl)-2-(2-methoxy-1-methoxymethyl-ethyl)-1H-imidazole-4-carbonyl]-amino}-benzoic Acid], the Kb was 61.7 nM.

Molecule O=C(Nc1cccc(S(=O)(=O)O)c1)c1nc(C2CCCCC2)[nH]c1CCC12CC3CC(CC(C3)C1)C2 [Example 268, 3-{[5-(2-Adamantan-1-yl-ethyl)-2-cyclohexyl-1H-imidazole-4-carbonyl]-amino}-benzenesulfonic Acid] has a Kb of 224 nM.

Cc1ccccc1-c1nc(CNc2cccc(C(=O)O)c2)c(CCC23CC4CC(CC(C4)C2)C3)n1C [Example 279, 3-{[5-(2-Adamantan-1-yl-ethyl)-1-methyl-2-o-tolyl-1H-imidazol-4-ylmethyl]-amino}-benzoic Acid] was tested, and the Kb was 145 nM.

O=C(O)c1cc(NC(=O)c2nc(C3CCCCC3)[nH]c2COC23CC4CC(CC(C4)C2)C3)ccc1F [Example 299, 5-{[5-(Adamantan-1-yloxymethyl)-2-cyclohexyl-1H-imidazole-4-carbonyl]-amino}-2-fluoro-benzoic Acid] showed a Kb of 20.4 nM.

For O=C(O)c1cccc(NC(=O)c2nc(C3C4CC5CC(C4)CC3C5)[nH]c2CCC23CC4CC(CC(C4)C2)C3)c1 (stereo not shown) [Example 207, 3-{[2-Adamantan-2-yl-5-(2-adamantan-1-yl-ethyl)-1H-imidazole-4-carbonyl]-amino}benzoic Acid], the Kb was 69.2 nM.

O=C(O)/C=C/c1cccc(NC(=O)c2nc(C3CCCCC3)[nH]c2CCC23CC4CC(CC(C4)C2)C3)c1 [Example 259, trans-3-(3-{[5-(2-Adamantan-1-yl-ethyl)-2-cyclohexyl-1H-imidazole-4-carbonyl]-amino}-phenyl)-acrylic Acid] was tested, and the Kb was 70.8 nM.

Molecule Cc1cc(C)c(-c2nc(C(=O)Nc3ccc(F)c(C(=O)O)c3)c(CCC34CC5CC(CC(C5)C3)C4)[nH]2)c(C)n1 [Example 184, 5-{[5-(2-Adamantan-1-yl-ethyl)-2-(2,4,6-trimethyl-pyridine-3-yl)-1H-imidazole-4-carbonyl]-amino}-2-fluoro-benzoic Acid] has a Kb of 70.8 nM.

With “(±)-5-{[5-(2-Adamantan-1-yl-ethyl)-2-[1-methyl-piperidin-2-yl])-1H-imidazole-4-carbonyl]-amino}-2-methyl-benzoic Acid [Example 141]” the “Gastrin pKb” value was 7.21.

O=C(O)c1cccc(NC(=O)c2nc(C3CCOCC3)[nH]c2COC23CC4CC(CC(C4)C2)C3)c1 [Example 233, 3-{[5-(Adamantan-1-yloxymethyl)-2-(tetrahydro-pyran-4-yl)-1H-imidazole-4-carbonyl]-amino}-benzoic Acid] gave a Kb of 70.8 nM.

Work on Cc1cc(C)c(-c2nc(C(=O)Nc3cccc(C(=O)O)c3)c(CCC34CC5CC(CC(C5)C3)C4)[nH]2)c(C)n1 [Example 182, 3-{[5-(2-Adamantan-1-yl-ethyl)-2-(2,4,6-trimethyl-pyridine-3-yl)-1H-imidazole-4-carbonyl]-amino}-benzoic Acid] yielded a Kb of 51.3 nM.

O=C(O)C=Cc1cc(NC(=O)c2nc(C3CCCCC3)[nH]c2CCC23CC4CC(CC(C4)C2)C3)ccc1Cl [Example 269, 3-(5-{[5-(2-Adamantan-1-yl-ethyl)-2-cyclohexyl-1H-imidazole-4-carbonyl]-amino}-2-chloro-phenyl)-acrylic Acid] gave a Kb of 933 nM.

O=C(O)CC(=O)Nc1cccc(NC(=O)c2nc(C3CCCCC3)[nH]c2CCC23CC4CC(CC(C4)C2)C3)c1 [Example 267, N-(3-{[5-(2-Adamantan-1-yl-ethyl)-2-cyclohexyl-1H-imidazole-4-carbonyl]-amino}-phenyl)-malonamic Acid] gave a Kb of 112 nM.

With O=C(O)CNC(=O)c1cccc(NC(=O)c2nc(C3CCCCC3)[nH]c2CCC23CC4CC(CC(C4)C2)C3)c1 [Example 263, (3-{[5-(2-Adamantan-1-yl-ethyl)-2-cyclohexyl-1H-imidazole-4-carbonyl]-amino}-benzoylamino)-acetic Acid] the Kb was 75.9 nM.

Work on Cc1ccc(NC(=O)c2nc(C3CCCCCC3)[nH]c2COC23CC4CC(CC(C4)C2)C3)cc1C(=O)O [Example 296, 5-{[5-(Adamantan-1-yloxymethyl)-2-cycloheptyl-1H-imidazole-4-carbonyl]-amino}-2-methyl-benzoic Acid] yielded a Kb of 2.09 nM.

O=C(O)c1cccc(NC(=O)c2nc([C@H]3CC4CC[C@H]3C4)[nH]c2COC23CC4CC(CC(C4)C2)C3)c1 [Example 291, endo-3-{[5-(Adamantan-1-yloxymethyl)-2-((1S,2S)-bicyclo[2.2.1]hept-2-yl)-1H-imidazole-4-carbonyl]-amino}-benzoic Acid] was tested, and the “Gastrin pKb” value was 9.12.

In the case of CN(CC(=O)O)C(=O)c1cccc(NC(=O)c2nc(C3CCCCC3)[nH]c2CCC23CC4CC(CC(C4)C2)C3)c1 [Example 266, [(3-{[5-(2-Adamantan-1-yl-ethyl)-2-cyclohexyl-1H-imidazole-4-carbonyl]-amino}-benzoyl)-methyl-amino]-acetic Acid], the Kb is reported as 19.1 nM.

With O=C(O)c1cccc(NC(=O)c2nc(C3CC4C=CC3C4)[nH]c2COC23CC4CC(CC(C4)C2)C3)c1 (racemic) [Example 234, (±)-endo-3-{[5-(Adamantan-1-yloxymethyl)-2-bicyclo[2.2.1]hept-5-en-2-yl-1H-imidazole-4-carbonyl]-amino}-benzoic Acid] the “Gastrin pKb” value was 8.71.
